Like-named read-outs stand apart in the source and are kept apart here.
How the values were obtained:
α-chymotrypsin = α-chymotrypsin 1% by weight, 0.1 M Tris buffer pH 7.7, 37° C., RP-HPLC
[1] = test system: Staphylococcus aureus 207A; conditions: 10, 30, 100 or 300 μg/ml in 10 mM PIPES pH 7.4; FIG. 4
Experimental: (§1) Nutrient-containing agar (or agarose) plates were seeded with E. coli ML35, C. neoformans 271A, S. aureus 207A or C. albicans 16820. […] Following an initial incubation interval of 1 to 4 hr, the well-containing layer was overlayed with enriched (2×normal) solid medium in order to support microbial growth outside the perimeter of inhibition. After overnight incubation at 30° C. to 37° C., the antimicrobial activity was quantitated by measuring the clear zones around each well (zone of inhibition).

Escherichia coli ML35 = conditions: 10, 30, 100 or 300 μg/ml in 10 mM PIPES pH 7.4; FIG. 2
Experimental: as §1

[2] = test system: Cryptococcus neoformans 271A; conditions: 10, 30, 100 or 300 μg/ml in 10 mM PIPES pH 7.4; FIG. 3
Experimental: as §1

Candida albicans 16820 = conditions: 10, 30, 100 or 300 μg/ml in 10 mM PIPES pH 7.4; FIG. 5
Experimental: as §1

S. aureus 207A = conditions: 30 min
Experimental: (§2) Microbicidal activity was measured by first incubating the target organism with the peptide in 10 mM PIPES buffer (pH 7.4), then plating the suspension to quantitate surviving microorganisms.
(§3) Cultures were grown to mid log phase in an appropriate medium, harvested, washed, and resuspended to 1-2×10^7 colony forming units (CFU) per ml. To conserve peptide, the incubation volume usually was 0.05 ml, with the final cell concentration being 1-2×10^6 CFU/ml. Peptide stock solutions, usually made up in […], were diluted in the incubation buffer to a final concentration of 1 μg/ml to 30 μg/ml, and the incubation was initiated by addition of an appropriate volume of the bacterial or fungal stock suspension to the prewarmed (37° C.) peptide-buffer mixture. E. coli and S. aureus were incubated with peptide for 30 min; C. albicans was incubated for 60 min; and C. neoformans was incubated for 4 hr. Following incubation, 50 μl or 100 μl samples were removed and diluted serially, then plated on nutrient-containing agar plates.

C. neoformans 271A = conditions: 4 hr
Experimental: as §2, §3

C. albicans = conditions: 60 min, 10 mM PIPES pH 7.4
Experimental: as §2, §3

E. coli ML35 = conditions: 30 min
Experimental: as §2, §3

[3] = 10 μg/ml peptide, 10 mM PIPES pH 7.4

Ile-Leu-Pro-Trp-Lys-Trp-Pro-Trp-Trp-Pro-Trp-Arg-Arg-CONH2 [Indol 1-13]
time within which all of the peptide was digested (α-chymotrypsin): ≤ 6 h
growth inhibition (zone of inhibition) [1]: inhibited the growth of each microorganism tested in a dose dependent manner
growth inhibition (zone of inhibition) (Escherichia coli ML35): inhibited the growth of each microorganism tested in a dose dependent manner
growth inhibition (zone of inhibition) [2]: inhibited the growth of each microorganism tested in a dose dependent manner
growth inhibition (zone of inhibition) (Candida albicans 16820): inhibited the growth of each microorganism tested in a dose dependent manner
reduction of survival (CFU) (S. aureus 207A; [3]): greater than three orders of magnitude
additional killing versus 10 μg/ml (S. aureus 207A; 30 μg/ml peptide): minimal additional killing
reduction of survival (CFU) (C. neoformans 271A; [3]): greater than three orders of magnitude
additional killing versus 10 μg/ml (C. neoformans 271A; 30 μg/ml peptide): minimal additional killing
reduction of survival (CFU) (C. albicans; 10 μg/ml peptide): about two orders of magnitude
reduction of survival (CFU) (C. albicans; 30 μg/ml peptide): greater than three orders of magnitude
reduction of survival (CFU) (E. coli ML35; [3]): greater than three orders of magnitude
additional killing versus 10 μg/ml (E. coli ML35; 30 μg/ml peptide): minimal additional killing
